Consider 1 compound from patent US20080072338A1, “Animal for Drug Efficacy Evaluation, Method for Developing Chronic Obstructive Pulmonary Disease in Animal for Drug Efficacy Evaluation, and Method for Evaluating Drug Efficacy Using the Animal” (priority 2004, published 2008).

The test system of this assay is chronic obstructive pulmonary disease-model animal. Description: Drug efficacy evaluation in the chronic obstructive pulmonary disease-model animal (change of respiratory function).
Setting [1] is: 10 mg/kg orally 1 hour before cigarette solution and LPS solution, guinea-pig, average values of 6 animals.

Turning to `Cn1c(=O)c2[nH]cnc2n(C)c1=O` [Theophylline, theophylline], under setting [1], the Peak expiratory flow came to 19.0 mL/s, the Respiratory minute rate was 124 breaths/min, the Respiratory minute volume amounted to 457 mL/min and the Tidal volume was 3.7 mL. Besides, the “Effect on respiration function (in words)” value (10 mg/kg orally, COPD-model guinea-pig) was “improvement effect of respiration function”.
